How the values were obtained:
[1] = system: interleukin 6 (IL-6); test: Interleukin 6 induction assay in human whole blood; format: cell-based; details: 37° C., 20 h, AlphaLISA
Method: This example describes a method for assaying interleukin 6 induction by compounds disclosed in this specification.
Compounds diluted in DMSO were transferred to individual wells of a Matrix Technologies clear, V-bottom 384-well plate using ECHO acoustic liquid handling technology (25 nL per well). Human whole-blood samples (25 uL) were added to each well using a CyBio FeliX liquid handling instrument. The plate was shaken on a plate shaker for three min before incu-bating the reaction mixtures at 37° C. for 20 h. Basel RPMI 1640 medium (supplemented with L-glutamine) was then added to each well (25 uL per well) prior to liberating plasma from each sample by centrifugation (450×g, 5 min, ambient temperature). Treated plasma samples (3 uL) were subsequently transferred to individual wells of a white, shallow, 384-well ProxiPlate (Perkin Elmer) using the FeliX liquid handling instrument and their interleukin 6 levels were measured using AlphaLISA technology as described by the manufacturer, PerkinElmer. Data analyses software was used to determine compound EC50 values where the baseline was established using average DMSO values and 100% induction established using reference compound values at the highest concentration tested. EC50's can be determined with software such as Graphpad Prism™.

[2] = molecular target: human TLR7 (Homo sapiens (Human), UniProt Q9NYK1); test: HEK-Blue TLR7 reporter assay (TLR7 agonist activity); format: cell-based; details: HEK-Blue TLR7 cells, SEAP reporter, 18 h treatment; read-out: TLR7 Agonism (EC50)
human TLR7, sequence (Q9NYK1 27-1049): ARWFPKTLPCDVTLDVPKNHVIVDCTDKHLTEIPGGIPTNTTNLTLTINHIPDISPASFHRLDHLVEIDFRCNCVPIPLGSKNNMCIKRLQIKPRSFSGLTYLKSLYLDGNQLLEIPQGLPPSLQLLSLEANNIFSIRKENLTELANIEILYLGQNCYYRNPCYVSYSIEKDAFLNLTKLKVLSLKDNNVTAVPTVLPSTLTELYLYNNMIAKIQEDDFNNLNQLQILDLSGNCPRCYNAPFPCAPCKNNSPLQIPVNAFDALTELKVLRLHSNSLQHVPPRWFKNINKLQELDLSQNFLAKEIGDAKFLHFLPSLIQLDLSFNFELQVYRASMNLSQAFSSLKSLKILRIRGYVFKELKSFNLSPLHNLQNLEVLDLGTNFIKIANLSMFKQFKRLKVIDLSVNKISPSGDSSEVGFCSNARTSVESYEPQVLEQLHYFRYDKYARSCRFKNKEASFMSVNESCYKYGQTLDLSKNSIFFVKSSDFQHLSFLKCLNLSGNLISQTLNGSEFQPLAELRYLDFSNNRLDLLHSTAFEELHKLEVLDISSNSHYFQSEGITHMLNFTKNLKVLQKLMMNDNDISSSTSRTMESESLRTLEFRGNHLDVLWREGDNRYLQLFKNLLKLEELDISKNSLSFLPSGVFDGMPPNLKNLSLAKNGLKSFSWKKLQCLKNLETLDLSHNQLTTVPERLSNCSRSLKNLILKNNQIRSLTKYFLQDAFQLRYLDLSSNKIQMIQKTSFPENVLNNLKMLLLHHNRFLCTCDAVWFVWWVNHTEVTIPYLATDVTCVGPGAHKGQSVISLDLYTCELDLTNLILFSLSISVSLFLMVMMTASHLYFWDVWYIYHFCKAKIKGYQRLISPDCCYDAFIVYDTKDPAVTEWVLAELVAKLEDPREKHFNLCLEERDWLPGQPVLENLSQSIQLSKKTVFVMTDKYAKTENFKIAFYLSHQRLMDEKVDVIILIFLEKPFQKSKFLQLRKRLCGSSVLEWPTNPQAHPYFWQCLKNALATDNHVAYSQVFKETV
Method: This example describes a method for assaying TLR7 agonist activity of the compounds disclosed in this specification.
HEK-Blue™ TLR7 cells were added to each well of a 384-well tissue-culture plate (15,000 cells per well) and incubated 16-18 h at 37° C., 5% CO2. Compounds (100 nl) were dispensed into wells containing the HEK-Blue™ TLR cells and the treated cells were incubated at 37° C., 5% CO2. After 18 h treatment ten microliters of freshly-prepared Quanti-Blue™ reagent (Invivogen) was added to each well, incubated for 30 min (37° C., 5% CO2) and SEAP levels measured using an Envision plate reader (OD=620 nm).

[3] = system: IFN-α; details: fold lower potency vs corresponding purine-8-one compound; cited from earlier work

Row | Structure (SMILES) | EC50 [1] | EC50 [2] | potency less than that of the corresponding purine-8-one compound, as measured by IFN-α induction [3]
1 | CCCCOc1nc(N)c2nc(O)n(Cc3ccc4c(c3)Sc3cc(CNC(C)C)ccc3N4C)c2n1 [Ia-02] | 4.9 nM | 4.7 nM | –
2 | CCCCOc1nc(N)c2nc(O)n(Cc3ccc4c(c3)Sc3cc(CO)ccc3N4C)c2n1 [Ia-01] | 250 nM | 50 nM | –
3 | CCCCOc1nc(N)c2c(n1)N(Cc1cccc(CN3CCCC3)c1)CC(=O)N2 [Vesatolimod, vesatolimod, reference compound] | – | 1200 nM | 100 ×
4 | CCCCOc1nc(N)c2nc(O)n(Cc3ccccc3)c2n1 [Compound B, reference compound] | – | 474 nM | –
5 | CCCCOc1nc(N)c2nc(O)n(Cc3ccc4c(c3)Sc3cc(CNC)ccc3N4C)c2n1 [Ia-04] | 48 nM | 39 nM | –
6 | CCCCOc1nc(N)c2nc(O)n(Cc3ccc4c(c3)Sc3cc(CNCc5ccncc5)ccc3N4C)c2n1 [Ia-07] | – | 7.9 nM | –
7 | CCCCOc1nc(N)c2nc(O)n(Cc3ccc4c(c3)Sc3cc(CNC5COC5)ccc3N4C)c2n1 [Ia-05] | – | 580 nM | –
8 | CCCCOc1nc(N)c2nc(O)n(Cc3ccc4c(c3)Sc3cc(CNCc5ccccc5)ccc3N4C)c2n1 [Ia-03] | 14.4 nM | 8.5 nM | –
9 | CCCCOc1nc(N)c2nc(O)n(Cc3ccc4c(c3)Sc3cc(CNC5CCC5)ccc3N4C)c2n1 [Ia-06] | 750 nM | 93 nM | –
